From PubChem BioAssay (NCI)
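Five compound concentrations were applied to cells in 96-well plates for 48 hours; endpoints were derived by simple linear interpolation of the resulting dose-response curve. TGI: concentration producing complete growth inhibition.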

Tests used:
Assay in all cases: NCI tumour cell line growth inhibition, 48 h
A549 NSCLC = test system: A549 NSCLC
BT-549 breast = test system: BT-549 breast
CAKI-1 renal = test system: CAKI-1 renal
EKVX NSCLC = test system: EKVX NSCLC
HCT-116 colon = test system: HCT-116 colon
HOP-62 NSCLC = test system: HOP-62 NSCLC
KM12 colon = test system: KM12 colon
LOX IMVI melanoma = test system: LOX IMVI melanoma
NCI-H23 lung = test system: NCI-H23 lung
NCI-H460 lung = test system: NCI-H460 lung
OVCAR-4 ovarian = test system: OVCAR-4 ovarian
RPMI-8226 leukemia = test system: RPMI-8226 leukemia
RXF 393 renal = test system: RXF 393 renal
SF-295 CNS = test system: SF-295 CNS
SN12C renal = test system: SN12C renal
SNB-75 CNS = test system: SNB-75 CNS
UO-31 renal = test system: UO-31 renal
CCRF-CEM leukemia = test system: CCRF-CEM leukemia
MDA-MB-435 = test system: MDA-MB-435
SK-MEL-2 melanoma = test system: SK-MEL-2 melanoma

| SMILES | TGI (A549 NSCLC) [µM] | TGI (BT-549 breast) [µM] | TGI (CAKI-1 renal) [µM] | TGI (EKVX NSCLC) [µM] | TGI (HCT-116 colon) [µM] | TGI (HOP-62 NSCLC) [µM] | TGI (KM12 colon) [µM] | TGI (LOX IMVI melanoma) [µM] | TGI (NCI-H23 lung) [µM] | TGI (NCI-H460 lung) [µM] | TGI (OVCAR-4 ovarian) [µM] | TGI (RPMI-8226 leukemia) [µM] | TGI (RXF 393 renal) [µM] | TGI (SF-295 CNS) [µM] | TGI (SN12C renal) [µM] | TGI (SNB-75 CNS) [µM] | TGI (UO-31 renal) [µM] | TGI (CCRF-CEM leukemia) [µM] | TGI (MDA-MB-435) [µM] | TGI (SK-MEL-2 melanoma) [µM] |
| --- | --- | --- | --- | --- | --- | --- | --- | --- | --- | --- | --- | --- | --- | --- | --- | --- | --- | --- | --- | --- |
| O=S(=O)(c1ccccc1)C(c1ccc2ccccc2n1)S(=O)(=O)c1ccccc1 | > 100 | > 100 | > 100 | > 100 | > 100 | > 100 | > 100 | > 100 | > 100 | > 100 | > 100 | > 100 | > 100 | > 100 | > 100 | > 100 | > 100 |  |  |  |
| CCOC(=O)CCC(NC(=O)c1ccc(Oc2nc3ccccc3nc2-c2ccccc2)cc1)C(=O)OCC (centres undefined) | > 100 |  | > 66.4 | > 100 | > 49.3 | 45.1 | > 100 | > 100 | > 61.3 | > 100 | 65.6 | > 100 | > 76.2 | > 60.7 | > 100 | 26.2 | > 100 | > 100 | > 100 | > 93 |
| CC[C@H](Nc1c(O)c2c(c(O)c1Cl)C(=O)C=CC2=O)C(=O)OC | > 10 | > 10 | > 10 | > 10 | 5.89 | > 10 | > 10 | > 10 | > 10 | > 10 | > 10 | > 10 |  | > 10 | 9.16 | > 10 |  | > 10 | > 10 | > 10 |
| COc1cc2cc3c4cc(OC)c(OC)cc4cc[n+]3cc2cc1OC | > 100 |  | > 100 | > 100 | > 100 | > 100 | > 100 | > 100 | > 100 | > 100 | > 100 | > 100 | > 100 | > 100 | > 100 | > 100 | > 100 | > 100 |  | > 100 |
| CN(C)CC1CN=C(N)O1 (centres undefined) | > 100 |  | > 100 | > 100 | > 100 | > 100 | > 100 | > 100 | > 100 | > 100 | > 100 | > 100 | > 100 | > 100 | > 100 |  | > 100 | > 100 | > 100 | > 100 |
| COc1ccc(C2SCC(=O)N2NC(=O)c2ccncc2)cc1F (centres undefined) | > 100 |  | > 100 |  | > 100 | > 100 | > 100 | > 100 | > 100 | > 100 | > 100 | > 100 | > 100 | > 100 | > 100 | > 100 |  |  |  | > 100 |
| CC12CCC(C(Nc3cc(C(F)(F)F)cc(C(F)(F)F)c3)C1=O)C2(C)C (centres undefined) | > 100 | > 100 | > 100 | > 100 | > 100 | > 100 | > 100 | > 100 | > 100 | > 100 | > 100 | > 100 |  | > 100 |  |  | > 100 |  | > 100 | > 100 |
| COc1cccc(/C=C2\CCCc3ccccc3C2=O)c1 | > 100 | 39.3 | > 100 | 50.2 | 27.9 | 31 | 38.8 | 38.9 | 32.6 | 34.2 | 28.5 | 64.1 |  | 30.7 | 33 | > 100 | 29.7 | 35.3 | 30.1 | 27.4 |
| Cc1n[nH]c(=O)n1/N=C/c1ccc(F)cc1 | > 100 | > 100 | > 100 | > 100 | > 100 | > 100 | > 100 |  | > 100 | > 100 | > 100 | > 100 | > 100 | > 100 | > 100 | > 100 | > 100 | > 100 | > 100 |  |
| CC1=NN(c2cccc(Cl)c2)C2(SCC(=O)N2c2nc3ccccc3s2)/C1=C\c1ccc(N(C)C)cc1 (centres undefined) |  |  | > 100 | > 100 | > 100 | 48.6 | > 100 | > 100 | > 100 | > 100 | > 100 | > 100 | 44.8 | > 100 |  |  | > 100 | > 100 | > 100 | 57.5 |
| COc1ccc(/C=C2\CN(C)C/C(=C\c3ccc(OC)cc3)C2=O)cc1 | > 100 |  | > 100 | > 100 | > 100 | > 100 | > 100 | > 100 | > 100 | > 100 | > 100 | > 100 | > 100 | > 100 | > 100 | > 100 | > 100 | > 100 | > 100 | > 100 |
| N#CC(C#N)=C/C=C(\Sc1c(Cl)c(Cl)nc(Cl)c1Cl)c1ccc(Cl)cc1 | > 100 |  | 34.2 | > 100 | 34.8 | 96.6 | 51.5 | 20.5 | 35.9 | > 100 | > 100 | > 100 | 40 | 44.9 | 42.4 | 44.9 | > 100 | > 100 | 20.3 | > 100 |
| COc1cccc(C2c3cc4c(cc3OC(N3CCOCC3)C2C)OCO4)c1OC (centres undefined) | > 100 |  | 5.36 | > 100 | 15.7 | 31.6 | 36.2 | 12.6 | > 100 | 30.7 |  | 24.1 |  | 32.9 | 48.4 | 37.2 | 33.6 | 28.8 | 33.8 | 25.5 |
